Results published in patent US10809252B2, “Time-resolved fluorescent immunochromatographic assay rapid test kit for type I pyrethroid” (priority 2017, dated 2020).

B1: QW8#: universal monoclonal antibody against type I pyrethroid secreted by hybridoma cell line QW8# (CCTCC C2016164), subtype IgG2a (antibody, V domains shown)
VH: QVTLKESGPGILQPSQTLSLTCSFSGFSLSTYGIGIGWIRQSSGRGLEWLAHIWWNDNRYYNIALKSRLTISKDASNNQFFLKLASVDTADIATYYCVRGYGRPFYAMDYWGQGTTVTVSS
VL: QAVVTQESALTTSPGETVTLTCRSSTGAVTTSNYVNWVQEKPDHLFTGLIGGTNNRGPGVPARFSGSLIGDKAALTITGTQTEDEAIYFCALWYSNHWVFGGGTKLTVL

Columns and labels:
[1] = tested on: universal monoclonal antibody against type I pyrethroid (hybridoma cell line QW8#); test: conventional indirect competitive ELISA; format: binding, mouse
Excerpt: To screen the target positive hybridoma cell line that is a highly specific and sensitive cell line against pyrethroid containing a diphenyl ether structure (by screening with etofenprox standard), the traditional two-step screening method was modified in this experiment. A gradient screening method was used in the indirect competitive ELISA screening process. (1) In the first step, an indirect non-competitive ELISA was used to screen the positive wells that recognized the diphenyl ether structure, but not the carrier protein (BSA). […] The positive wells with relatively small B/B0 were selected, where B is the absorbance in the control well […] etofenprox standard, and B0 is the absorbance in the wells with etofenprox standard. The cells were cloned by limiting dilution, and detected about 10 days after the cloning by using the same two-step method as described above. […]
The affinity for QW8# was determined by indirect non-competitive ELISA. […] The OD450 values measured was used as the vertical coordinates, the values of the logarithm of the antibody concentrations (mol/L) were used as the horizontal coordinates, 4 S-shaped curves corresponding to the 4 concentrations were plotted. […]

Hapten-1-BSA = test: affinity constant (Ka) of the antibody by indirect non-competitive ELISA; format: binding; settings: antibody derived from mouse ascetic fluid; plate coated with Hapten-1-BSA at 2.0, 1.0, 0.5, 0.25 μg/mL
Description: The affinity for QW8# was determined by indirect non-competitive ELISA. The plate was coated at 37° C. for 2 hours with Hapten-1-BSA at concentrations of 2.0, 1.0, 0.5, and 0.25 μg/mL in an amount of 100 μL/well. After the plate was blocked with a blocking solution for 1 hour, the antibody diluted with PBS (at a dilution factor of 1:2) was added to the plate and the rest steps were the same as those in indirect non-competitive ELISA. The OD450 values measured was used as the vertical coordinates, the values of the logarithm of the antibody concentrations (mol/L) were used as the horizontal coordinates, 4 S-shaped curves corresponding to the 4 concentrations were plotted. The maximum OD value (ODmax) at the top of each S-curve, that is, the concentration of the antibody that corresponds to 50% of the ODmax, was obtained from each curve. The 4 concentrations were paired, and the affinity constant (Ka) of the antibody was calculated by using the formula Ka=(n−1)/2(n[Ab′]t−[Ab]t), where [Ab′]t, and [Ab]t are antibody concentrations corresponding to 50% of two ODmax values in each group, and n is the multiple of the antigen concentration coated in each group.

| Molecule | IC50 value of the universal monoclonal antibody [1] [µg/mL] | affinity (affinity constant Ka) of the antibody (Hapten-1-BSA) [L/mol] |
| --- | --- | --- |
| CCOc1ccc(C(C)(C)COCc2cccc(Oc3ccccc3)c2)cc1 [etofenprox] | 0.02086 | – |
| CC1(C)C(C=C(Cl)Cl)C1C(=O)OCc1cccc(Oc2ccccc2)c1 (stereo not drawn) [permethrin] | 0.0242 | – |
| B1 | – | 2.16e+08 |
